Measured values taken from ChEMBL document CHEMBL1131744, “Amino-substituted thalidomide analogs: potent inhibitors of TNF-alpha production” (Bioorg Med Chem Lett, 1999).

Key:
PBMC [1] = assay: Inhibition of lipopolysaccharide stimulated TNF-alpha release in human PBMC at 100 uM; format: functional
PBMC [2] = assay: Inhibition of lipopolysaccharide stimulated TNF-alpha release in human PBMC; format: functional, cell-based
[3] = target: T1, Phosphodiesterase 4 (Homo sapiens) (UniProt P27815+Q08499+Q07343+Q08493); assay: Inhibition of PDE4 from U937 cells at 100 uM; format: cell-based; conditions: U-937
Homo sapiens = species: Homo sapiens; assay: Inhibition of lipopolysaccharide stimulated TNF-alpha release in human whole blood; format: functional
[4] = target: T1, Phosphodiesterase 4 (Homo sapiens); assay: Inhibition of Phosphodiesterase 4 from U937 cells at 100 uM; format: cell-based; conditions: U-937

Structure (SMILES) | inhibition [3] [%] | IC50 (Homo sapiens) [nM] | inhibition [4] [%] | inhibition at 100 µM (PBMC [1]) [%] | IC50 (PBMC [2]) [nM]
Nc1cccc2c1C(=O)N(C1CCC(=O)NC1=O)C2 (stereo unspecified) |  |  |  | 18 | 
Nc1ccc2c(c1)C(=O)N(C1CCC(=O)NC1=O)C2=O (stereo unspecified) |  |  |  | 55 | 
Nc1ccc2c(c1)C(=O)N(C1CCC(=O)NC1=O)C2 (stereo unspecified) |  |  |  | 12 | 
Nc1cccc2c1C(=O)N([C@H]1CCC(=O)NC1=O)C2=O |  | 14 |  | 99 | 3.9
Nc1ccc2c(c1)CN(C1CCC(=O)NC1=O)C2=O (stereo unspecified) |  |  |  | 15 | 

The next lines start with results.

inhibition [3] [%] | IC50 (Homo sapiens) [nM] | inhibition [4] [%] | Structure (SMILES) | inhibition at 100 µM (PBMC [1]) [%] | IC50 (PBMC [2]) [nM]
< 50 | 216 |  | CC1(N2C(=O)c3cccc(N)c3C2=O)CCC(=O)NC1=O (stereo unspecified) | 98 | 44
 | 25 | < 50 | Nc1cccc2c1C(=O)N(C1CCC(=O)NC1=O)C2=O (stereo unspecified) [POMALIDOMIDE] | 95 | 13
 | 73 |  | Nc1cccc2c1C(=O)N([C@@H]1CCC(=O)NC1=O)C2=O | 85 | 93
 | 480 | < 50 | Nc1cccc2c1CN(C1CCC(=O)NC1=O)C2=O (stereo unspecified) [LENALIDOMIDE] | 74 | 
